Assay results as given in article PMC10090446, “Population pharmacokinetic analysis and dosing optimization of polymyxin B in critically ill patients” (Frontiers in Pharmacology, 2023).
Positions of bridges follow the written chain, without caps; N, C: chain ends. Non-standard residues stand in square brackets, D forms with d. Residues, ends and D or L forms follow the SMILES beside them. *: point of attachment. X1 = CC[C@H](C)CCCCC(=O)*; Dab = NCC[C@H](N)C(=O)O

Assay: Steady-state plasma concentrations of polymyxin B (total of B1, B2, B1-Ile) by LC-MS/MS
Format: in vivo
Settings: human, iv, read-out: OUT (observed polymyxin B plasma concentration)
Excerpt: We gather data from critically ill patients (≥18 years old) who were given intravenous drip polymyxin B treatment with blood concentration monitoring at the hospital from November 2021 to September 2022. The attending physician decided to administer polymyxin B. At the same time, patients who received continuous renal replacement therapy (CRRT) (n = 10) or extracorporeal membrane oxygenation (ECMO) (n = 2) at the time of blood collection were excluded. Patients’ information, including gender, age, WT, serum creatinine (Scr), CCR, ALB, APACHE-II, infection diagnosis, and pathogenic bacteria, were obtained from the electronic system for medical records. CCR was generated by adopting the Cockcroft—Gault equation with WT and age ([Cucci et al., 2022]). The Ethical Committees of the Second Affiliated Hospital of the South China University of Technology authorized the study (K-2022-020-01).
Patients were treated with polymyxin B, and plasma samples were collected ≥ 48 h after the treatment. Each patient contributed clinical samples, of which 37.5% (n = 24) were sampled with troughs (within 1 h before administration), 35.9% (n = 23) were sampled with peaks (within 1 h after the end of the infusion), and 26.6% (n = 17) were sampled at 6-8 h after the infusion. The dosing regimens of polymyxin B were a loading dose of 100 mg–150 mg and a maintenance dose of 50 mg–75 mg q12h, and the infusion duration was about 1–2 h. In preparation for analysis, samples were centrifuged for 10 min at 3000 r min^-1 after collection, and the upper plasma after centrifugation was stored at −20°C.
According to previous studies, total polymyxin B1, polymyxin B2, and polymyxin B1-Ile concentrations in human blood plasma were quantified using LC-MS/MS ([Meng et al., 2016]; [Hee et al., 2017]). The standard used in our experiments was the USP standard with the batch number of R104F0. The chromatographic column was the Kinetex C18 (3 μm × 2.1 mm×100 mm. Phenomenex). A: B mobile phase was 0.1% formic acid to acetonitrile. With changes in the linear velocity ratio, gradient elution was as follows: 15% −15% B, 0–2.0 min; 15%–10% B, 2.01–4.0 min; 10%–30% B, 4.01–5.0 min; 15% B, 5.01 min; and 15%–15% B, 5.02–10 min. The flow rate was constrained to 0.8 mL min^-1, and the column temperature was set to 40°C. The parent/daughter ion mass ratios used in the mass spectrometry were m/z 602.6/241.2 (polymyxin B1 and B1-Ile) and m/z 595.6/202.1 (polymyxin B2). Plasma samples (100 μL) were collected from centrifuged blood samples, mixed with 500 μL precipitant (acetonitrile with 6.67% formic acid) and vortexed well for 1 min. The lower limit of quantification (LLOQ) of the bioanalytical method used for quantifying polymyxin B1, B2, and B1-Ile concentrations was 0.19, 0.02 and 0.02 mg L^-1, respectively. The linear relationships of polymyxin B1, B2, and B1-Ile concentrations in the range of 0.19–24.13 mg L^-1, 0.02–2.7 mg L^-1 and 0.02–2.38 mg L^-1 were considered good (R^2 = 0.99677, R^2 = 0.99656, R^2 = 0.99484) and the accuracy was within 95.3%–105.3%, 92.2%–104.8%, and 95.8%–105.4%. […] Finally, 200 μL of the supernatant from the centrifugation of the combination at 14,000 r min^-1 for 10 min was employed to measure the amounts of polymyxin B.

CC[C@H](C)CCCCC(=O)N[C@@H](CCN)C(=O)N[C@H](C(=O)N[C@@H](CCN)C(=O)N[C@H]1CCNC(=O)[C@H]([C@@H](C)O)NC(=O)[C@H](CCN)NC(=O)[C@H](CCN)NC(=O)[C@H](CC(C)C)NC(=O)[C@@H](Cc2ccccc2)NC(=O)[C@H](CCN)NC1=O)[C@@H](C)O [polymyxin B] (X1-[Dab]T[Dab][Dab][Dab][dF]L[Dab][Dab]T; lactam 4-C)
level at 325 h (patient ID 3, TIME 325, DOSE 100 at 0 then 50 from 12, ADDL 27, II 12, DUR 1, WT 57, CCR 61.5, ALB 33.8, APACHE 21, single sample): 6600 ng/mL | level at 330 h (patient ID 3, TIME 330, DOSE 100 at 0 then 50 from 12, ADDL 27, II 12, DUR 1, WT 57, CCR 61.5, ALB 33.8, APACHE 21, single sample): 2930 ng/mL | level at 336 h (patient ID 3, TIME 336, DOSE 100 at 0 then 50 from 12, ADDL 27, II 12, DUR 1, WT 57, CCR 61.5, ALB 33.8, APACHE 21, single sample): 3140 ng/mL | level at 59 h (patient ID 4, TIME 59, DOSE 100 at 0 then 50 every 12 to 48, DUR 1, WT 58, CCR 61.95, ALB 25.5, APACHE 28, single sample): 863 ng/mL | level at 64.5 h (patient ID 4, TIME 64.5, DOSE 100 at 0 then 50 every 12 to 60, DUR 1, WT 58, CCR 61.95, ALB 25.5, APACHE 28, single sample): 2330 ng/mL | level at 167.9 h (patient ID 5, TIME 167.9, DOSE 100 at 0 then 50 from 12, ADDL 15, II 12, DUR 1, WT 60, CCR 41.15, ALB 36.1, APACHE 21, single sample): 2900 ng/mL | level at 182 h (patient ID 5, TIME 182, DOSE 100 at 0 then 50 from 12, ADDL 15, II 12, DUR 1, WT 60, CCR 41.15, ALB 36.1, APACHE 21, single sample): 4510 ng/mL | level at 186 h (patient ID 5, TIME 186, DOSE 100 at 0 then 50 from 12, ADDL 15, II 12, DUR 1, WT 60, CCR 41.15, ALB 36.1, APACHE 21, single sample): 3290 ng/mL | level at 73.25 h (patient ID 10, TIME 73.25, DOSE 100 at 0 then 50 every 12 to 72, DUR 1, WT 62, CCR 72.12, ALB 33.9, APACHE 17, single sample): 6730 ng/mL | level at 79 h (patient ID 10, TIME 79, DOSE 100 at 0 then 50 every 12 to 72, DUR 1, WT 62, CCR 72.12, ALB 33.9, APACHE 17, single sample): 6230 ng/mL | level at 84.42 h (patient ID 10, TIME 84.42, DOSE 100 at 0 then 50 every 12 to 72, DUR 1, WT 62, CCR 72.12, ALB 33.9, APACHE 17, single sample): 3890 ng/mL | level at 98 h (patient ID 11, TIME 98, DOSE 100 at 0 then 50 every 12 to 96, DUR 2, WT 55, CCR 67.29, ALB 30.9, APACHE 46, single sample): 5200 ng/mL | level at 102 h (patient ID 11, TIME 102, DOSE 100 at 0 then 50 every 12 to 96, DUR 2, WT 55, CCR 67.29, ALB 30.9, APACHE 46, single sample): 2530 ng/mL | level at 105.5 h (patient ID 11, TIME 105.5, DOSE 100 at 0 then 50 every 12 to 96, DUR 2, WT 55, CCR 67.29, ALB 30.9, APACHE 46, single sample): 2180 ng/mL | level at 145 h (patient ID 13, TIME 145, DOSE 75 at 0 then 50 every 12 from 12 (ADDL 12), DUR 1, WT 57, CCR 41.39, ALB 24.4, APACHE 18, single measurement): 2590 ng/mL | level at 150 h (patient ID 13, TIME 150, DOSE 75 at 0 then 50 every 12 from 12 (ADDL 12), DUR 1, WT 57, CCR 41.39, ALB 24.4, APACHE 18, single measurement): 1830 ng/mL | level at 156 h (patient ID 13, TIME 156, DOSE 75 at 0 then 50 every 12 from 12 (ADDL 12), DUR 1, WT 57, CCR 41.39, ALB 24.4, APACHE 18, single measurement): 1090 ng/mL | level at 50.5 h (patient ID 14, TIME 50.5, DOSE 100 at 0, 50 at 12, 24, 36, 50.8, DUR 1, WT 60, CCR 111.4, ALB 25.4, APACHE 25, single measurement): 1140 ng/mL | level at 51.8 h (patient ID 14, TIME 51.8, DOSE 100 at 0, 50 at 12, 24, 36, 50.8, DUR 1, WT 60, CCR 111.4, ALB 25.4, APACHE 25, single measurement): 4060 ng/mL | level at 57.8 h (patient ID 14, TIME 57.8, DOSE 100 at 0, 50 at 12, 24, 36, 50.8, DUR 1, WT 60, CCR 111.4, ALB 25.4, APACHE 25, single measurement): 1820 ng/mL | level at 72.66 h (patient ID 15, TIME 72.66, DOSE 100 at 0, 50 at 12, 100 at 24, 75 at 36, 48, 60, WT 50, CCR 35.85, ALB 29.5, APACHE 39, single measurement): 3110 ng/mL | level at 54.67 h (patient ID 19, TIME 54.67, DOSE 100 at 0 then 50 every 12 from 12 (ADDL 3), DUR 1, WT 60, CCR 35.69, ALB 25.6, APACHE 19, single measurement): 1860 ng/mL | level at 60 h (patient ID 19, TIME 60, DOSE 100 at 0 then 50 every 12 from 12 (ADDL 3), DUR 1, WT 60, CCR 35.69, ALB 25.6, APACHE 19, single measurement): 1300 ng/mL | level at 73.45 h (patient ID 20, TIME 73.45, DOSE 100 at 0 then 50 every 12 from 12 (ADDL 6), DUR 1.45, WT 75, CCR 84.86, ALB 29.5, APACHE 18, single measurement): 4270 ng/mL | level at 77.45 h (patient ID 20, TIME 77.45, DOSE 100 at 0 then 50 every 12 from 12 (ADDL 6), DUR 1.45, WT 75, CCR 84.86, ALB 29.5, APACHE 18, single measurement): 2700 ng/mL | level at 84 h (patient ID 20, TIME 84, DOSE 100 at 0 then 50 every 12 from 12 (ADDL 6), DUR 1.45, WT 75, CCR 84.86, ALB 29.5, APACHE 18, single measurement): 1960 ng/mL | level at 50 h (patient ID 21, TIME 50, DOSE 150 at 0 then 75 every 12 from 12 (ADDL 4), DUR 2, WT 70, CCR 56.54, ALB 38.1, APACHE 40, single measurement): 7030 ng/mL | level at 54 h (patient ID 21, TIME 54, DOSE 150 at 0 then 75 every 12 from 12 (ADDL 4), DUR 2, WT 70, CCR 56.54, ALB 38.1, APACHE 40, single measurement): 3830 ng/mL
